Data reported in patent US6737383B1, “Herbicidal oxadiazolidines” (priority 1999, dated 2004).

How the values were obtained:
wild oat = assay: Test B pre/postemergence wild oat; type: in vivo, Avena fatua
How it was run: (§1)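 Response is a visual 0-to-10 score relative to untreated plants, where 0 means no effect and 10 means complete control, taken twelve to sixteen days after application. Treatments went onto soil at planting and onto foliage of 1- to 4-leaf plants, using a surfactant-containing non-phytotoxic solvent.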

rice = assay: Test B flood test rice; type: in vivo, Oryza sativa
How it was run: (§2)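 Each value is a visual injury score relative to controls, with 10 meaning complete control and 0 no effect. Evaluation took place twelve to sixteen days after the 2-leaf-stage plants were treated and kept in the greenhouse.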

wheat = assay: Test B pre/postemergence wheat; type: in vivo, Triticum aestivum
How it was run: as §1

soybean = assay: Test B pre/postemergence soybean; type: in vivo, Glycine max
How it was run: as §1

velvetleaf = assay: Test B pre/postemergence velvetleaf; type: in vivo, Abutilon theophrasti
How it was run: as §1

purple nutsedge = assay: Test B pre/postemergence purple nutsedge; type: in vivo, Cyperus rotundus
How it was run: as §1

morningglory = assay: Test B pre/postemergence morningglory; type: in vivo, Ipomoea hederacea
How it was run: as §1

bedstraw = assay: Test B pre/postemergence bedstraw; type: in vivo, Galium aparine; conditions: Preemergence
How it was run: as §1

sugar beet = assay: Test B pre/postemergence sugar beet; type: in vivo, Beta vulgaris
How it was run: as §1

bamyardgrass = assay: Test B flood test barnyardgrass; type: in vivo, Echinochloa crus-galli
How it was run: as §2

smallflower flatsedge = assay: Test B flood test smallflower flatsedge; type: in vivo, Cyperus difformis
How it was run: as §2

giant foxtail = assay: Test B pre/postemergence giant foxtail; type: in vivo, Setaria faberii
How it was run: as §1

corn = assay: Test B pre/postemergence corn; type: in vivo, Zea mays
How it was run: as §1

pigweed = assay: Test B pre/postemergence pigweed; type: in vivo, Amaranthus retroflexus
How it was run: as §1

cocklebur = assay: Test B pre/postemergence cocklebur; type: in vivo, Xanthium strumarium
How it was run: as §1

crabgrass = assay: Test B pre/postemergence crabgrass; type: in vivo, Digitaria sanguinalis
How it was run: as §1

surinam grass = assay: Test B pre/postemergence surinam grass; type: in vivo, Brachiaria decumbens
How it was run: as §1

blackgrass = assay: Test B pre/postemergence blackgrass; type: in vivo, Alopecurus myosuroides
How it was run: as §1

duck salad = assay: Test B flood test duck salad; type: in vivo, Heteranthera limosa
How it was run: as §2

rape = assay: Test B pre/postemergence rape; type: in vivo, Brassica napus
How it was run: as §1

[1] = Postemergence, Rate 500 g/ha, scale of 0 to 10 where 0 is no effect and 10 is complete control
[2] = Preemergence, Rate 62 g/ha, scale 0 to 10 (0 no effect, 10 complete control)
[3] = Preemergence, Rate 125 g/ha, scale of 0 to 10 where 0 is no effect and 10 is complete control
[4] = Preemergence, Rate 250 g/ha, scale 0 to 10, 0 is no effect, 10 is complete control
[5] = Preemergence, Rate 500 g/ha, scale 0 to 10, 0 is no effect, 10 is complete control
[6] = Rate 62 g/ha, flood test species, Pre-emergence, visual evaluation after twelve to sixteen days
[7] = Rate 125 g/ha, under heading Pre-emergence, flood test species, visual evaluation after twelve to sixteen days
[8] = Rate 250 g/ha, Pre-emergence, flood-test species, scale 0 to 10, 0 is no effect, 10 is complete control
[9] = Rate 500 g/ha, Pre-emergence, flood test species, scale 0 to 10 (0 no effect, 10 complete control)
[10] = Postemergence, Rate 250 g/ha, scale 0 to 10, 0 is no effect, 10 is complete control
[11] = Postemergence, Rate 125 g/ha, scale 0 to 10, 0 is no effect, 10 is complete control
[12] = Rate 62 g/ha, Postemergence, scale of 0 to 10 where 0 is no effect and 10 is complete control
[13] = Preemergence, Rate 250 g/ha, scale of 0 to 10 where 0 is no effect and 10 is complete control

Cc1nc(Cl)sc1C(C)n1c(=O)on(C(=O)N(c2ccc(Cl)cc2)C(C)C)c1=O (centres unmarked) [Compound 406]
Wild oats plant response rating (wild oat; [1]): 0
Plant response rating, Wild oats (wild oat; [2]): 0
Plant response rating, Wild oats (wild oat; [3]): 0
Wild oats plant response rating (wild oat; [4]): 0
Wild oats plant response rating (wild oat; [5]): 0
Plant response rating, Rice (0 to 10 scale, 0 is no effect, 10 is complete control) (rice; [6]): 0
Rice plant response rating (0 to 10 scale, 0 is no effect, 10 is complete control) (rice; [7]): 0
Rice plant response rating (rice; [8]): 0
Rice plant response rating (rice; [9]): 0
Wheat plant response rating (wheat; [1]): 0
Plant response rating, Wheat (wheat; [2]): 0
Plant response rating, Wheat (wheat; [3]): 0
Wheat plant response rating (wheat; [4]): 0
Wheat plant response rating (wheat; [5]): 0
Plant response rating, Soybean (soybean; [10]): 2
Soybean plant response rating (soybean; [1]): 2
Plant response rating, Soybean (soybean; [2]): 0
Plant response rating, Soybean (soybean; [3]): 0
Soybean plant response rating (soybean; [4]): 0
Soybean plant response rating (soybean; [5]): 0
Plant response rating, Velvetleaf (velvetleaf; [10]): 0
Velvetleaf plant response rating (velvetleaf; [1]): 0
Plant response rating, Velvetleaf (velvetleaf; [2]): 0
Plant response rating, Velvetleaf (velvetleaf; [3]): 0
Velvetleaf plant response rating (velvetleaf; [4]): 0
Velvetleaf plant response rating (velvetleaf; [5]): 0
Plant response rating, Nutsedge (purple nutsedge; [10]): 0
Nutsedge plant response rating (purple nutsedge; [1]): 0
Plant response rating, Nutsedge (purple nutsedge; [2]): 0
Plant response rating, Nutsedge (purple nutsedge; [3]): 0
Nutsedge plant response rating (purple nutsedge; [4]): 0
Nutsedge plant response rating (purple nutsedge; [5]): 0
Plant response rating, Morningglory (morningglory; [10]): 2
Morningglory plant response rating (morningglory; [1]): 2
Plant response rating, Morningglory (morningglory; [2]): 0
Plant response rating, Morningglory (morningglory; [3]): 0
Morningglory plant response rating (morningglory; [4]): 0
Morningglory plant response rating (morningglory; [5]): 0
Plant response rating, Bedstraw (bedstraw; Rate 62 g/ha, scale 0 to 10 (0 no effect, 10 complete control)): 0
Plant response rating, Bedstraw (bedstraw; Rate 125 g/ha, scale of 0 to 10 where 0 is no effect and 10 is complete control): 0
Bedstraw plant response rating (bedstraw; Rate 250 g/ha, scale of 0 to 10 where 0 is no effect and 10 is complete control): 0
Plant response rating, Sugarbeets (sugar beet; [10]): 0
Sugarbeets plant response rating (sugar beet; [1]): 0
Plant response rating, Sugarbeets (sugar beet; [2]): 0
Plant response rating, Sugarbeets (sugar beet; [3]): 0
Sugarbeets plant response rating (sugar beet; [4]): 0
Sugarbeets plant response rating (sugar beet; [5]): 0
Plant response rating, Barnyardgrass (0 to 10 scale, 0 is no effect, 10 is complete control) (bamyardgrass; [6]): 0
Barnyardgrass plant response rating (0 to 10 scale, 0 is no effect, 10 is complete control) (bamyardgrass; [7]): 0
Barnyardgrass plant response rating (bamyardgrass; [8]): 0
Barnyardgrass plant response rating (bamyardgrass; [9]): 0
Plant response rating, S. Flatsedge (0 to 10 scale, 0 is no effect, 10 is complete control) (smallflower flatsedge; [6]): 0
S. Flatsedge plant response rating (0 to 10 scale, 0 is no effect, 10 is complete control) (smallflower flatsedge; [7]): 0
S. Flatsedge plant response rating (smallflower flatsedge; [8]): 0
S. Flatsedge plant response rating (smallflower flatsedge; [9]): 0
Plant response rating, Giant foxtail (giant foxtail; [11]): 0
Plant response rating, Giant foxtail (giant foxtail; [10]): 0
Giant foxtail plant response rating (giant foxtail; [1]): 0
Plant response rating, Giant foxtail (giant foxtail; [2]): 0
Plant response rating, Giant foxtail (giant foxtail; [3]): 0
Giant foxtail plant response rating (giant foxtail; [4]): 2
Giant foxtail plant response rating (giant foxtail; [5]): 9
Giant foxtail plant response rating (giant foxtail; [12]): 0
Plant response rating, Corn (corn; [11]): 0
Plant response rating, Corn (corn; [10]): 0
Corn plant response rating (corn; [1]): 0
Plant response rating, Corn (corn; [2]): 0
Plant response rating, Corn (corn; [3]): 0
Corn plant response rating (corn; [4]): 0
Corn plant response rating (corn; [5]): 0
Corn plant response rating (corn; [12]): 0
Plant response rating, Redroot pigweed (pigweed; [10]): 0
Redroot pigweed plant response rating (pigweed; [1]): 0
Plant response rating, Redroot pigweed (pigweed; [2]): 0
Plant response rating, Redroot pigweed (pigweed; [3]): 0
Redroot pigweed plant response rating (pigweed; [4]): 0
Redroot pigweed plant response rating (pigweed; [5]): 0
Plant response rating, Cocklebur (cocklebur; [11]): 0
Plant response rating, Cocklebur (cocklebur; [10]): 0
Cocklebur plant response rating (cocklebur; [1]): 0
Plant response rating, Cocklebur (cocklebur; [2]): 0
Plant response rating, Cocklebur (cocklebur; [3]): 0
Cocklebur plant response rating (cocklebur; [4]): 0
Cocklebur plant response rating (cocklebur; [5]): 0
Cocklebur plant response rating (cocklebur; [12]): 0
Plant response rating, Crabgrass (crabgrass; [11]): 0
Plant response rating, Crabgrass (crabgrass; [10]): 0
Crabgrass plant response rating (crabgrass; [1]): 0
Plant response rating, Crabgrass (crabgrass; [2]): 0
Plant response rating, Crabgrass (crabgrass; [3]): 0
Crabgrass plant response rating (crabgrass; [4]): 2
Crabgrass plant response rating (crabgrass; [5]): 6
Crabgrass plant response rating (crabgrass; [12]): 0
Plant response rating, B. signalgrass (surinam grass; [11]): 0
Plant response rating, B. signalgrass (surinam grass; [10]): 0
B. signalgrass plant response rating (surinam grass; [1]): 0
Plant response rating, B. signalgrass (surinam grass; [2]): 0
Plant response rating, B. signalgrass (surinam grass; [3]): 0
B. signalgrass plant response rating (surinam grass; [13]): 0
B. signalgrass plant response rating (surinam grass; Preemergence, Rate 500 g/ha, scale of 0 to 10 where 0 is no effect and 10 is complete control): 0
B. signalgrass plant response rating (surinam grass; [12]): 0
Plant response rating, Blackgrass (blackgrass; [11]): 0
Plant response rating, Blackgrass (blackgrass; [10]): 0
Blackgrass plant response rating (blackgrass; [1]): 0
Plant response rating, Blackgrass (blackgrass; [2]): 0
Plant response rating, Blackgrass (blackgrass; [3]): 0
Blackgrass plant response rating (blackgrass; [13]): 0
Blackgrass plant response rating (blackgrass; [5]): 0
Blackgrass plant response rating (blackgrass; [12]): 0
Plant response rating, Ducksalad (0 to 10 scale, 0 is no effect, 10 is complete control) (duck salad; [6]): 0
Ducksalad plant response rating (0 to 10 scale, 0 is no effect, 10 is complete control) (duck salad; [7]): 0
Ducksalad plant response rating (duck salad; [8]): 0
Ducksalad plant response rating (duck salad; [9]): 0
Plant response rating, Rape (rape; [10]): 0
Rape plant response rating (rape; [1]): 0
Plant response rating, Rape (rape; [2]): 0
Plant response rating, Rape (rape; [3]): 0
Rape plant response rating (rape; [4]): 0
Rape plant response rating (rape; [5]): 0
